Each structure is given as a SMILES string.

The subject of series [1] is caterpillars of the diamondback moth (Plutella xylostella, resistant strain). Briefly: Plutella test, resistant strain (LC95, Carpenter). The format is in vivo. The conditions noted are these: found. An excerpt: Plutella Test, Resistant Strain
Series [2] relates to caterpillars of the diamondback moth (Plutella xylostella, sensitive strain). Briefly: Plutella test, sensitive strain (LC95, Carpenter). The format is in vivo. The conditions noted are these: found. An excerpt:
Plutella Test, Sensitive Strain

The test system of series [3] is caterpillars of the armyworm (Spodoptera frugiperda). The series can be described thus: Spodoptera frugiperda test (LC50, Carpenter). The format is in vivo. The conditions noted are these: found, cabbage leaf dip. An excerpt:
(§1) Spodoptera frugiperda Test

The test system of series [4] is larvae of the mustard beetle (Phaedon cochleariae). The series can be described thus: Phaedon larvae test (LC50, Carpenter). As to conditions: found, cabbage leaf dip.
For series [5], the system named is Heliothis virescens caterpillars. The series can be described thus: Heliothis virescens test (kill rate, Colby). The format is in vivo. As to conditions: soya bean shoot dip. Here is the method: (§2) The kill rates determined are calculated using Colby's formula (see sheet 1).
Series [6] has as its system caterpillars of the armyworm (Spodoptera frugiperda). Briefly: Spodoptera frugiperda test (kill rate, Colby). The format is in vivo. As to conditions: cabbage leaf dip. Here is the method: as §1, §2
For series [7], the system named is larvae of the mustard beetle (Phaedon cochleariae). Briefly: Phaedon larvae test (kill rate, Colby). As to conditions: cabbage leaf dip. The format is in vivo. The protocol:
as §2

Series [8] deals with normally sensitive caterpillars of the diamondback moth (Plutella xylostella). Briefly: Plutella test (normally sensitive) (kill rate, Colby). The format is in vivo. As to conditions: normally sensitive strain. Here is the method:
Plutella Test (Normally Sensitive)
as §2

The subject of series [9] is resistant caterpillars of the diamondback moth (Plutella xylostella). Briefly: Plutella test (resistant) (kill rate, Colby). The format is in vivo. The conditions noted are these: resistant strain. The protocol: Plutella Test (Resistant)
as §2

Turning to `CN/C(=N\[N+](=O)[O-])NCc1cnc(Cl)s1` [clothianidin (X), (E)-1-(2-chloro-1,3-thiazol-5-yl-methyl)-3-methyl-2-nitroguanidine], the “LC95 after 6 days” value is 50.722 ppm in series [1] and 26.037 ppm in series [2]. The “LC50 after 6 days” value is 0.662 ppm in [3] and 2.372 ppm in series [4].

As for `O=[N+]([O-])/N=C1\NCCN1Cc1ccc(Cl)nc1` [imidacloprid, 1-[(6-chloro-3-pyridinyl)methyl]-N-nitro-2-imidazolidineimine], the “Kill rate in % after 3 days” value in series [5] (3 ppm) was 15%; in series [7] (3 ppm), 0%. Besides, the “Kill rate in % after 6 days” value in series [6] (0.6 ppm) turned out to be 0%.

Take `COC(=O)N(C(=O)N1CO[C@@]2(C(=O)OC)Cc3cc(Cl)ccc3C2=N1)c1ccc(OC(F)(F)F)cc1` [indoxacarb]: the “Kill rate in % after 6 days” value in series [8] (0.1 ppm) is 65%; in [9] (0.1 ppm), 55%; in series [6] (0.02 ppm) it was 0%; in series [7] (0.5 ppm), 45%. Besides, the “LC95 after 6 days” value is recorded as 0.234 ppm in [1] and 0.531 ppm in series [2]. For the same compound, the “Kill rate in % after 3 days” value was 0% in series [5] (0.1 ppm) and 20% in series [7] (0.5 ppm). Moreover, the “LC50 after 6 days” value in [3] came to 0.136 ppm; in [4], 0.1 ppm.

As to `N#C/N=C1\SCCN1Cc1ccc(Cl)nc1` [thiacloprid, (Z)-3-(6-chloro-3-pyridylmethyl)-1,3-thiazolidin-2-ylidenecyanamide], the “Kill rate in % after 6 days” value in [8] (3 ppm), in series [9] (3 ppm) and in [7] (3 ppm) was 0% in each case.

(Values after patent publication US20040063703A1, “Synergistic pesticide mixtures for the control of animal pests” (priority 2001, published 2004).)
